Earlier results in publication PMC5014530 (Molecular Therapy. Nucleic Acids, 2016).

Test system: mitochondrial membranes

## (KLAKLA)2
  Mechanism of apoptosis induction: disrupts mitochondrial membranes to cause apoptosis
